One experiment addresses T1, PR (Homo sapiens, UniProt P06401).
T1 sequence (P06401 1-933): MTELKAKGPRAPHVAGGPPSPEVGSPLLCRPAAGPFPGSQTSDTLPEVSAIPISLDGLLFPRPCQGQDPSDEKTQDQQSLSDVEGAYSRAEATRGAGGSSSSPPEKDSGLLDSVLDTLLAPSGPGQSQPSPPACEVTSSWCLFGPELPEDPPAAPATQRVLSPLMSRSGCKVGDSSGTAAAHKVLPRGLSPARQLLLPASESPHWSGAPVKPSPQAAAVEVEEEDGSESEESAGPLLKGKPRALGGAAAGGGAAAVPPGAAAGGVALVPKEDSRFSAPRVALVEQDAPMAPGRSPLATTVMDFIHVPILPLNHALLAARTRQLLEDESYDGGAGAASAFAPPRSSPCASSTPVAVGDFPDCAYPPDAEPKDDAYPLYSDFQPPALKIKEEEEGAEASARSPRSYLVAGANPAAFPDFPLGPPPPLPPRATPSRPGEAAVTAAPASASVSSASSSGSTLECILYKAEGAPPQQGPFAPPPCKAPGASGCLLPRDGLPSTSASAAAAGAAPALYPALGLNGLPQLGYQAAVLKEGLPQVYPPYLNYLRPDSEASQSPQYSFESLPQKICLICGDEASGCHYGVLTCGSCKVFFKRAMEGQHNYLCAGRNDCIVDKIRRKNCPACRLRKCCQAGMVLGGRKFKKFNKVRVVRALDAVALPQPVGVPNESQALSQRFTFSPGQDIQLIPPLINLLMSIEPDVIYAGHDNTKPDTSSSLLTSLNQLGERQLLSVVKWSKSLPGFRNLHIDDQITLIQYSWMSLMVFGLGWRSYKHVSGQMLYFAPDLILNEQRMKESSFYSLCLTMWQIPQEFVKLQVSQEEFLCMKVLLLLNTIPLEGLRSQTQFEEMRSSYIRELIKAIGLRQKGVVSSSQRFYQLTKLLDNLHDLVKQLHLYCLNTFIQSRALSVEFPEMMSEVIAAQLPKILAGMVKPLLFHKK
As to conditions: known, potent, non-steroidal agonist; cited from earlier work.

The target in experiment [1] is T2, GR LBD (521-777) F602S polypeptide (human glucocorticoid receptor alpha ligand binding domain) (human, UniProt P04150 521-777).
T2 construct: Expressed in E. coli from plasmid 6xHisGS-TGR(521-777) F602S pET24; The fusion tag was cut off with thrombin before complex formation and crystallization; Residue numbers in the text follow full-length human GR; In the crystal, two LBD monomers form a symmetric dimer; also called GRα LBD; GR LBD F602S
T2 sequence: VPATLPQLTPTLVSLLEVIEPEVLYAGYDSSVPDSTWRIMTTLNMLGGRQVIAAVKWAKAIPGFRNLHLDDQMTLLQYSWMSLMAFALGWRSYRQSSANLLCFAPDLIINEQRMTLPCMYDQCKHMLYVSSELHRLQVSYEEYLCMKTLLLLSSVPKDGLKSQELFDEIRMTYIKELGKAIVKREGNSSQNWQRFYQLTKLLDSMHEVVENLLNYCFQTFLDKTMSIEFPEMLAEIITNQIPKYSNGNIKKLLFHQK
As to the kind of experiment: X-ray co-crystal structure, 2.6 Å.

With `CC1CCC(c2ccc(Cl)c(C(F)(F)F)c2)=NN1S(=O)(=O)c1ccc(I)cc1` (centres unmarked) [RWJ-60130, 3-(4-chloro-3-trifluoromethylphenyl)-1-(4iodobenzensulfonyl)-6-methyl-1,4,5,6-tetrahydropyridazine], on PR, the “binding affinity for PR (in words)” value is “high-affinity”.

B1: TIF2 peptide (residues 740-753 of the human TIF2 protein), KENALLRYLLDKDD (peptide)
peptide: KENALLRYLLDKDD
Take B1: in experiment [1], the binding result is “binds”.
